Source: patent US20260055081A1, “Metal Chelator Compounds, Coordination Complexes, and Methods of Preparation and Use Thereof” (University of Puerto Rico, priority 2022, published 2026)

Columns and labels:
[1] = system: Jurkat cells; test: Ferroptosis mechanistic cell viability study (ferrostatin-1); format: cell-based, human; details: 10 μM Fer-1 pretreatment, 2 μM DefNEtTrp, 72 h
Method: Ferroptosis mechanistic cell viability study. Jurkat cells were seeded into 96-well plates, as indicated in the MTT assay described above The cells were treated with 10 μM of the ferroptosis inhibitor ferrostatin-1 (Fer-1). Another group of cells were treated with media alone. After 1 h incubation, half of the cells supplemented with Fer-1 were treated with 2 μM DefNEtTrp or 25 μM [Fe(citrate)2]^5−, as positive control, while the other half was treated with media alone. The final percentage of DMF was maintained at 0.5% (v/v). The MTT assay was performed with these samples (n=6). A student t-test was performed to evaluate the difference in the viability of cells treated with DefNEtTrp or [Fe(citrate)2]^5− and supplemented with and without Fer-1.

[2] = system: NCI 60 human tumor cell lines; test: NCI 60 cancer cell line screen, all cell lines tested; format: cell-based; details: 48 h
Method: National Cancer Institute Cancer Cell Line (NCI 60) Screen of DefNEtTrp. Details of the methodology for NCI 60 cell line screening are described at http://dtp.nci.nih.gov/branches/btb/ivclsp.html. The cells, grown in supplemented RPMI-1640 medium, are seeded in 96 well plates at an appropriate density and incubated for 24 h. The test compounds are dissolved in DMSO and incubated with cells at a single dose of 10.0 μM for 48 h. The assay is terminated by addition of cold trichloroacetic acid, and the cells are fixed and stained with sulforhodamine B. Bound stain is solubilized, and the absorbance is read on an automated plate reader. […] Using the seven absorbance measurements [time zero, […], control growth, (C), and test growth in the presence of drug at the five concentration levels (Tf)], the percentage growth was calculated at each of the drug concentrations levels as: [(Tf−Ti)/(C−Ti)]×100 for concentrations for which Tf≥Ti and [(Tf−Ti)/Ti]×100 for concentrations for which Tf<Ti. Three-dose response parameters (GI50, TGI, and LC50) were calculated for each of the experimental agents in five dose assay. Growth inhibition of 50% (GI50) was calculated from 100×[(Tf−Ti)/(C−Ti)]=50, which was the drug concentration resulting in a 50% reduction in the net protein increase (as measured by sulforhodamine B, SRB staining) in control cells during the drug incubation. The total growth inhibition (TGI) was calculated from Tf=Ti, which was the drug concentration resulting in total growth inhibition and signified the cytostatic effect. The 50% cellular death (LC50) was calculated from 100×[(Tf−Ti)/Ti]=−50, indicating a net loss of cells following treatment which indicated the concentration of drug resulting in a 50% reduction in the measured protein at the end of the drug treatment as compared to that at the beginning. […] Log GI50, log TGI, and log LC50 are the logarithm molar concentrations producing 50% growth inhibition (GI50), a total growth inhibition (TGI), and a 50% cellular death (LC50), respectively.

[3] = system: Renal cancer cell lines; test: NCI 60 five-dose screen, renal panel; format: cell-based, human; details: 48 h
Method: (§1) National Cancer Institute Cancer Cell Line (NCI 60) Screen of DefNEtTrp. Details of the methodology for NCI 60 cell line screening are described at http://dtp.nci.nih.gov/branches/btb/ivclsp.html. The cells, grown in supplemented RPMI-1640 medium, are seeded in 96 well plates at an appropriate density and incubated for 24 h. The test compounds are dissolved in DMSO and incubated with cells at a single dose of 10.0 μM for 48 h. The assay is terminated by addition of cold trichloroacetic acid, and the cells are fixed and stained with sulforhodamine B. Bound stain is solubilized, and the absorbance is read on an automated plate reader. […] Using the seven absorbance measurements [time zero, […], control growth, (C), and test growth in the presence of drug at the five concentration levels (Tf)], the percentage growth was calculated at each of the drug concentrations levels as: [(Tf−Ti)/(C−Ti)]×100 for concentrations for which Tf≥Ti and [(Tf−Ti)/Ti]×100 for concentrations for which Tf<Ti. Three-dose response parameters (GI50, TGI, and LC50) were calculated for each of the experimental agents in five dose assay. […] The total growth inhibition (TGI) was calculated from Tf=Ti, which was the drug concentration resulting in total growth inhibition and signified the cytostatic effect. […]

[4] = molecular target: T1, Fe(III)-saturated serum transferrin (Fe2-sTf) (Homo sapiens, UniProt P02787); test: Scavenging of Fe(III) from Fe(III)-saturated serum transferrin; format: biochemical; details: 22.5 μM Fe2-sTf with 45 μM DefNEtTrp, pH 7.4, 25° C., monitored over 3 days
T1 construct: purchased Sigma T2036
Method: The ability of DefNEtTrp to scavenge Fe(ITT) from Fe(ITI)-saturated serum transferrin(Fe2-sTf) was also examined. Fe2-sTf was prepared by reacting micromolar amounts of apo-sTf with 4 mol equiv of in situ prepared [Fe(citrate)2]^5− in 20 mM Hepes buffer (pH 7.4) containing 0.1 M NaCl and 27 mM NaHCO3. The sample was extensively dialyzed by rapid spin dialysis to remove the excess unbound Fe(III). The Fe(III) content was determined by the ferrozine colorimetric assay modified from a literature protocol and by monitoring the Fe2-STf-(CO3)2 LMCT band (λmax 465 nm; ε=5200 M^−1 cm^−1) (Viollier 2000, The ferrozine method revisited: Fe(II)/Fe(III) determination in natural waters. Appl. Geochem. 15 (6): 785-790). To 22.5 μM Fe2-sTf was reacted 45 μM DefNEtTrp (diluted in the same protein buffer while maintaining 5% DMF) in quadruplicate at 25° C. The reaction solutions were left to equilibrate and the LMCT absorbance was monitored after 24 h and 72 h. The reaction solutions were extensively dialyzed and then the protein concentrations were quantified by the Bradford colorimetric assay. The UV-Vis spectra of the washed protein samples were collected.

[5] = Aqueous solubility (observation); format: physicochemical
[6] = system: Non-Small Cell Lung cancer cell lines; test: NCI 60 five-dose screen, non-small cell lung panel; format: cell-based, human; details: 48 h
Method: as §1

[7] = system: Breast cancer cell lines; test: NCI 60 five-dose screen, breast panel; format: cell-based, human; details: 48 h
Method: as §1

[8] = cell lines in which TGI was observed
[9] = Homo sapiens, read-out: GI50 (calculated average)

T1 sequence (P02787 20-698): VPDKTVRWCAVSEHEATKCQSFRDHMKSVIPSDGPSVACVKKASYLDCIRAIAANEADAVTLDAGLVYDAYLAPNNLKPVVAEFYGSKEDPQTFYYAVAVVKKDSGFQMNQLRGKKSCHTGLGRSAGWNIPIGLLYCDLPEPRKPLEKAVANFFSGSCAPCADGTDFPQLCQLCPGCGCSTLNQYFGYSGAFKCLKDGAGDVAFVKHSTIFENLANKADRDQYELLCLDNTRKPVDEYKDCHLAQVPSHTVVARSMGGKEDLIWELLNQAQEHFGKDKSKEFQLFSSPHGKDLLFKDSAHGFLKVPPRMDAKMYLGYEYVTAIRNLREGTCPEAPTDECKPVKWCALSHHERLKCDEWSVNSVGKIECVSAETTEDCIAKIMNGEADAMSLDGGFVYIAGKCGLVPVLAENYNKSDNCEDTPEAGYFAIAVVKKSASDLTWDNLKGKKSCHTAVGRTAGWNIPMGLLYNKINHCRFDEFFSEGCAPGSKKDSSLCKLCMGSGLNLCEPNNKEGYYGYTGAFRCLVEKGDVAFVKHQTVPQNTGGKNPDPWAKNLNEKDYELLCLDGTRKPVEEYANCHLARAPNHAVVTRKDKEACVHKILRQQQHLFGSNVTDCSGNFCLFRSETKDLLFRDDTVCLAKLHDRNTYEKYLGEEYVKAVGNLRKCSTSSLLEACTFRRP

## Nc1cccnc1/C=N/NC(=S)NCCNC(=O)c1ccc(-n2nc(-c3ccccc3O)nc2-c2ccccc2O)cc1 [DefNEtTrp, deferasirox nitrogen ethyl triapine]
[1]
  change in cell viability of cells pretreated with Fer-1: two-fold increase in the cell viability
[2]; Homo sapiens, five-dose assay, average over all cell lines, read-out: average GI50 concentration, all cell lines
  GI50: 1.2 µM
[2]; Homo sapiens, five-dose assay, average over cell lines with 50% cell death
  LC50: 38.9 µM
[2]; five-dose assay
  share of cell lines tested with total cell growth inhibition: 77%
  share of tested cell lines with 50% cell death: 14%
[2]; five-dose assay, average over cell lines in which TGI was observed
  average TGI concentration: 8.5 µM
[2]; one-dose test of 10 μM
  antiproliferative activity in one-dose test: very promising broad spectrum antiproliferative activity
[3]; [8]
  TGI (calculated average): 13.71 µM
[3]; [9]
  GI50: 4.97 µM
[4]
  removal of Fe(III) from Fe2-sTf (LMCT absorbance 465 nm): no metal dissociation
[5]
  water solubility: limited water solubility
[6]; [8]
  TGI (calculated average): 6.33 µM
[6]; [9]
  GI50: 0.73 µM
[7]; [8]
  TGI (calculated average): 4.84 µM
[7]; [9]
  GI50: 0.45 µM
